In patent US11612606B2, “8-aminoisoquinoline compounds and uses thereof” (priority 2018, dated 2023):
Structures can show the parent of a compound that is named as a salt. Where two headings read alike, the source gives them in different places.

Target: HPK full length, T165E S171E (Homo sapiens (Human), UniProt Q92918, S171E/T165E)
Test: HPK1-FL HTRF enzymatic assay ("HTRF")
Format: biochemical
Conditions: ATP 1 mM
Experimental: Assay Principle: HPK-FL enzyme phosphorylates Biotin-SLP-76 substrate in the presence of ATP at […] and varying concentrations of test compound. Product is detected by FRET using Eu-anti-pSLP76 Ab and SA-XL665. Also see www.cisbio.com/HTRF for additional HTRF technology information.
Instrumentation: Echo555 compound dispenser; Agilent Bravo; Perkin Elmer Envision.
To a 384 well Proxiplate with 80 nL compound or DMSO spotted on was added 4 μl/well kinase mix. The mixture was preincubated for 30 minutes and then 4 μl/well substrate mix was added. The solution was incubated for 60 min and then 4 μl/well detection mix was added. The solution was incubated for another 60 min.
Exemplary compounds were tested in the HTRF binding assays.

HPK full length, T165E S171E, sequence (Q92918 whole entry T165E/S171E, looked up): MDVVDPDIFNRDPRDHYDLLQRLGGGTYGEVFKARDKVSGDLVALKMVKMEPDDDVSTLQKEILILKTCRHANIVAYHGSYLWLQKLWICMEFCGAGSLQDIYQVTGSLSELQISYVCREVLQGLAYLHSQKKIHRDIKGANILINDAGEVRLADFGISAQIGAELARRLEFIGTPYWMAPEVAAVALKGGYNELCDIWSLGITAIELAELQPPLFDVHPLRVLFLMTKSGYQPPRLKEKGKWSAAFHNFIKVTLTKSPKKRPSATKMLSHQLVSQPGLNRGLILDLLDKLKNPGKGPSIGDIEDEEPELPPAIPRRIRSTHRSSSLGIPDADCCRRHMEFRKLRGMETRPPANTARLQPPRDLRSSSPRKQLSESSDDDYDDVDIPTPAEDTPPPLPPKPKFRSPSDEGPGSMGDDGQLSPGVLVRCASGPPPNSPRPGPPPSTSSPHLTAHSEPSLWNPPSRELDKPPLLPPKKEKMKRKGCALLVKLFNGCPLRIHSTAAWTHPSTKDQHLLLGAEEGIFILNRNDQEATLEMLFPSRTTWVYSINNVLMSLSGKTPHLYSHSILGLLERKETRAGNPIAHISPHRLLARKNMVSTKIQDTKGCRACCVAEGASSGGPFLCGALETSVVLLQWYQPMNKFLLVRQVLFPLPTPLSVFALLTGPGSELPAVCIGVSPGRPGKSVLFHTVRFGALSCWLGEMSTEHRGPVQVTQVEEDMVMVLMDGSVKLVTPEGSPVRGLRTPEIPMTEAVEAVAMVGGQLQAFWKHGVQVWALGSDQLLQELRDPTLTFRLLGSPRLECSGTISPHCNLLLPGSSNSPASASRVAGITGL

| Structure (SMILES) | Ki (read-out: HPK1 Ki) [nM] | Ki (HPK1 Ki) [nM] |
| --- | --- | --- |
| Cc1c(-c2cc3cc(NC(=O)OC4CN(C(=O)[C@@H]5C[C@H]5F)C4)ncc3c(N)c2F)cnc2c1NCCC2 (single isomer, unassigned) [Compound 531b] | 0.152 | – |
| CNc1cncc(-c2cc3cc(NC(=O)O[C@H]4C[C@@](C)(O)C4)ncc3c(N)c2F)c1C [Compound 527b, (1s,3s)-3-Hydroxy-3-methylcyclobutyl (8-amino-7-fluoro-6-(4-methyl-5-(methylamino)pyridin-3-yl)isoquinolin-3-yl)carbamate] | 0.216 | – |
| Cc1c(-c2cc3cc(NC(=O)N[C@H]4C[C@H]4C)ncc3c(N)c2F)cnc2c1NCCO2 (single isomer, unassigned) [Compound 736a] | < 0.013 | – |
| Cc1c(-c2cc3cc(NC(=O)O[C@H]4C[C@@H](C(F)F)C4)ncc3c(N)c2F)cnc2c1NCCO2 [Compound 577a, (1s,3s)-3-(difluoromethyl)cyclobutyl (8-amino-7-fluoro-6-(8-methyl-2,3-dihydro-1H-pyrido[2,3-b][1,4]oxazin-7-yl)isoquinolin-3-yl)carbamate] | 0.015 | – |
| Cc1c(-c2cc3cc(NC(=O)OC4CC5COCC(C4)N5C)ncc3c(N)c2F)cnc2c1NCCO2 (stereo not shown) [Compound 406, 9-Methyl-3-oxa-9-azabicyclo[3.3.1]nonan-7-yl (8-amino-7-fluoro-6-(8-methyl-2,3-dihydro-1H-pyrido[2,3-b][1,4]oxazin-7-yl)isoquinolin-3-yl)carbamate] | 0.4 | – |
| Cc1c(-c2cc3cc(NC(=O)O[C@H]4C[C@@H](N5CCOCC5)C4)ncc3c(N)c2F)cnc2c1NCCO2 [Compound 550b, (1s,3s)-3-Morpholinocyclobutyl (8-amino-7-fluoro-6-(8-methyl-2,3-dihydro-1H-pyrido[2,3-b][1,4]oxazin-7-yl)isoquinolin-3-yl)carbamate] | – | 0.054 |
| Cc1c(-c2cc3cc(NC(=O)N4CCC4)ncc3c(N)c2F)cnc2c1NCCO2 [Compound 756, N-(8-Amino-7-fluoro-6-(8-methyl-2,3-dihydro-1H-pyrido[2,3-b][1,4]oxazin-7-yl)isoquinolin-3-yl)azetidine-1-carboxamide] | 0.02 | – |
| Cc1c(-c2cc3cc(NC(=O)N[C@H]4C[C@H]4F)ncc3c(N)c2F)cnc2c1NCCO2 [Compound 734a, 1-[8-Amino-7-fluoro-6-(8-methyl-2,3-dihydro-1H-pyrido[2,3-b][1,4]oxazin-7-yl)-3-isoquinolyl]-3-[(1S,2R)-2-fluorocyclopropyl]urea] | < 0.013 | – |
| Cc1c(-c2cc3cc(NC(=O)O[C@H]4C[C@H]([C@H](C)O)C4)ncc3c(N)c2F)cnc2c1NCCO2 (single isomer, unassigned) [Compound 573b] | 0.019 | – |
| Cc1c(-c2cc3cc(NC(=O)O[C@H]4C[C@](C)(C#N)C4)ncc3c(N)c2F)cnc2c1NCCO2 [Compound 537b, (1r,3r)-3-Cyano-3-methylcyclobutyl (8-amino-7-fluoro-6-(8-methyl-2,3-dihydro-1H-pyrido[2,3-b][1,4]oxazin-7-yl)isoquinolin-3-yl)carbamate] | < 0.013 | – |
| Cc1c(-c2cc3cc(NC(=O)OC4CC5(C4)CN(C)C5)ncc3c(N)c2F)cnc2c1NCCC2 [Compound 425, 2-Methyl-2-azaspiro[3.3]heptan-6-yl (8-amino-7-fluoro-6-(4-methyl-5,6,7,8-tetrahydro-1,5-naphthyridin-3-yl)isoquinolin-3-yl)carbamate] | < 0.013 | – |
| Cc1c(-c2cc3cc(NC(=O)OC4CCC4)ncc3c(N)c2F)cnc2c1NCCO2 [Compound 487, Cyclobutyl (8-amino-7-fluoro-6-(8-methyl-2,3-dihydro-1H-pyrido[2,3-b][1,4]oxazin-7-yl)isoquinolin-3-yl)carbamate] | < 0.013 | – |
| Cc1c(-c2cc3cc(NC(=O)O[C@H]4[C@@H]5CN(C)C[C@@H]54)ncc3c(N)c2F)cnc2c1NCCO2 [Compound 432a, (1R,5S,6s)-3-Methyl-3-azabicyclo[3.1.0]hexan-6-yl (8-amino-7-fluoro-6-(8-methyl-2,3-dihydro-1H-pyrido[2,3-b][1,4]oxazin-7-yl)isoquinolin-3-yl)carbamate] | < 0.013 | – |
| Cc1c(-c2cc3cc(NC(=O)O[C@H]4C[C@H](C(F)F)C4)ncc3c(N)c2F)cnc2c1NCCO2 [Compound 577b, (1r,3r)-3-(difluoromethyl)cyclobutyl (8-amino-7-fluoro-6-(8-methyl-2,3-dihydro-1H-pyrido[2,3-b][1,4]oxazin-7-yl)isoquinolin-3-yl)carbamate] | < 0.013 | – |
| Cc1c(-c2cc3cc(NC(=O)N[C@@H]4CCC[C@@H]4F)ncc3c(N)c2F)cnc2c1NCCO2 [Compound 727a, 1-[8-Amino-7-fluoro-6-(8-methyl-2,3-dihydro-1H-pyrido[2,3-b][1,4]oxazin-7-yl)-3-isoquinolyl]-3-[(1R,2S)-2-fluorocyclopentyl]urea] | < 0.013 | – |
| Cc1c(-c2cc3cc(NC(=O)O[C@@H]4CC[C@H]4C#N)ncc3c(N)c2F)cnc2c1NCCO2 [Compound 535b, (1R,2S)-2-Cyanocyclobutyl (8-amino-7-fluoro-6-(8-methyl-2,3-dihydro-1H-pyrido[2,3-b][1,4]oxazin-7-yl)isoquinolin-3-yl)carbamate] | 0.029 | – |
| Cc1c(-c2cc3cc(NC(=O)OC4CC5(C4)CN(CC(F)F)C5)ncc3c(N)c2F)cnc2c1NCCO2 [Compound 494, 2-(2,2-Difluoroethyl)-2-azaspiro[3.3]heptan-6-yl (8-amino-7-fluoro-6-(8-methyl-2,3-dihydro-1H-pyrido[2,3-b][1,4]oxazin-7-yl)isoquinolin-3-yl)carbamate] | < 0.013 | – |
| Cc1c(N)cncc1-c1cc2cc(NC(=O)O[C@@H]3COC[C@H]3C)ncc2c(N)c1F (single isomer, unassigned) [Compound 544b] | 2.7 | – |
| CO[C@@H]1COC[C@H]1OC(=O)Nc1cc2cc(-c3cnc4c(c3C)NCCO4)c(F)c(N)c2cn1 (single isomer, unassigned) [Compound 546b] | 0.051 | – |
| CO[C@@H]1COCC[C@@H]1OC(=O)Nc1cc2cc(-c3cnc4c(c3C)NCCO4)c(F)c(N)c2cn1 (single isomer, unassigned) [Compound 583c] | 0.099 | – |
| Cc1c(-c2cc3cc(NC(=O)O[C@@H]4CCN(CC(F)F)C[C@@H]4F)ncc3c(N)c2F)cnc2c1NCCO2 (single isomer, unassigned) [Compound 566a] | 0.293 | – |
| Cc1c(-c2cc3cc(NC(=O)O[C@H]4COC[C@@H]4C#N)ncc3c(N)c2F)cnc2c1NCCO2 (single isomer, unassigned) [Compound 538b] | 0.016 | – |
| CC(=O)N1CC2(CC(OC(=O)Nc3cc4cc(-c5cnc6c(c5C)NCCO6)c(F)c(N)c4cn3)C2)C1 [Compound 424, 2-Acetyl-2-azaspiro[3.3]heptan-6-yl (8-amino-7-fluoro-6-(8-methyl-2,3-dihydro-1H-pyrido[2,3-b][1,4]oxazin-7-yl)isoquinolin-3-yl)carbamate] | < 0.013 | – |
| Cc1c(-c2cc3cc(NC(=O)O[C@H]4C[C@@H](O)C4)ncc3c(N)c2F)cnc2c1NCCC2 [Compound 553a, (1s,3s)-3-hydroxycyclobutyl (8-amino-7-fluoro-6-(4-methyl-5,6,7,8-tetrahydro-1,5-naphthyridin-3-yl)isoquinolin-3-yl)carbamate] | < 0.013 | – |
| Cc1c(-c2cc3cc(NC(=O)O[C@H]4CC[C@@H]4O)ncc3c(N)c2F)cnc2c1NCCO2 [Compound 542c, (1S,2S)-2-Hydroxycyclobutyl (8-amino-7-fluoro-6-(8-methyl-2,3-dihydro-1H-pyrido[2,3-b][1,4]oxazin-7-yl)isoquinolin-3-yl)carbamate hydrochloride] | – | 0.021 |
